Consider two molecules from article PMC4156518 (Cell metabolism, 2014).

For experiment [1], the target named is T1, UCP2 (murine, residues 14-309) (Mus musculus, UniProt P70406).
T1 sequence (P70406 14-309): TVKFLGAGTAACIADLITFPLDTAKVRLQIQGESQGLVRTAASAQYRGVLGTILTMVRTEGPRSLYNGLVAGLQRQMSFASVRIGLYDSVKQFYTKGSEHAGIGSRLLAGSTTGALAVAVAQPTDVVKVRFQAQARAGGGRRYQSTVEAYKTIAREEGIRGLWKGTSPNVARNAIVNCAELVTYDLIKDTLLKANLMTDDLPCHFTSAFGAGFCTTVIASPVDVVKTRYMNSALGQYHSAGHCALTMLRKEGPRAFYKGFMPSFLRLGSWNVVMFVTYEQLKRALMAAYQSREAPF
Briefly: NMR titration, chemical shift perturbation. It is filed as binding.

Experiment [2] deals with T1, UCP2 (murine, residues 14-309). Briefly: proteoliposome ASO− flipping assay. The format is biochemical. Particulars: read-out: % inhibition at 100 μM.

Structures are written as SMILES.

Consider `CCCCCCCCCCCCCCCC(=O)O` [C16-FA], for which the Kd in experiment [1] was determined as 600 ± 200 µM.

For the molecule `Nc1nc2c(ncn2[C@@H]2O[C@H](COP(=O)(O)OP(=O)(O)O)[C@@H](O)[C@H]2O)c(=O)[nH]1` [GDP], the inhibition at 100 µM in experiment [2] is around 95%.
